Results as given in patent publication EP1148048A2, “Polyaromatic antiviral compositions” (PHARMACIA & UPJOHN COMPANY, priority 1997, dated 1998).
Read-outs that look alike come from different tables or passages of the source.

What was measured:
Assay type in all cases: cell-based
[1] = test system: HSV-1; experiment: Virus yield reduction assay, inhibition of HSV-1 viral replication in Vero cells; conditions: read-out: % Inhibition Against HSV-1 Viral Replication
Experimental: (§1) Compounds of the formulas II and III of the present invention are evaluated in an assay to measure the inhibition of HSV-1 viral replication in the presence of drug over a 14-16 hour period. The assay is discussed in detail by Pritchard, M.N. et al. "A Microliter Virus Yield Reduction Assay for the Evaluation of Antiviral Compounds Against Human Cytomegalovirus and Herpes Simplex Virus", J. Virol. Meth., Vol. 28, pp 101-106 (1990). Briefly, 80% confluent monolayers of Vero cells in 24 well plates are infected with low multiplicities of HSV-1 (MOI = .001). After an absorption period of 1 hour at 37 °C, the monolayers are rinsed with culture media and aliquots of compounds diluted into tissue culture media are added for 14-16 hours at 37 °C in a CO2 atmosphere. The growth media is removed and 1 ml of fresh media is added to each well and plates are placed at -70 °C. After a 1-5 day storage period the plates are rapidly thawed, samples are collected on ice and titrated on fresh Vero cell monolayers. Viral plaques are stained with 0.1% crystal violet in 20% alcohol for 10 minutes and are counted. Data are calculated to reflect the percentage of inhibition at indicated concentration relative to infected, non-drug treated controls.

[2] = test system: VZV; experiment: Plaque reduction assay, VZV replication in HFF cells over five days
Experimental: Antiviral activity against VZV are evaluated in an assay to measure the reduction of viral replication in the number viral plaques formed over five days of incubation in the presence of compounds of the present invention. Aliquots of VZV are added for 90 minutes to 24 well plates having HFF cells at 80% confluence to yield approximately 25 plaques for media treated wells. The plates are flicked and dilutions of compounds in tissue culture media at 2 time strength are added (0.5 ml per well). Immediately following the addition of drug 0.5 ml of 1.0% agarose is added to the wells and the plates are gently tapped to aid mixing. This final concentration of agarose (0.5%) is insufficient to solidify at 37 °C and serves as a semi solid overlay medium. Plates are undisturbed for five days. On day 5 the plates are examined microscopically for toxicity and plaques are counted using low power microscopy.

[3] = test system: HSV-2; experiment: Virus yield reduction assay, inhibition of HSV-2 viral replication (substantially the same assay as for HSV-1)
Experimental: as §1
Compounds of the formulas II and III of the present invention are also evaluated in substantially the same assay as described above to measure the inhibition of HSV-2 viral replication.

[4] = Human alphaherpesvirus 1, Vero, 14 h
[5] = Human alphaherpesvirus 1, 14 h, 5 µm, Vero cells, MOI = .001, 14-16 hours
[6] = Human alphaherpesvirus 1, 14 h, 30 µm, Vero cells, MOI = .001, 14-16 hours

| SMILES | inhibition at 5 µM [1, 4] [%] | inhibition at 30 µM [1, 4] [%] | inhibition at 5 µM [1, 5] [%] | inhibition at 30 µM [1, 6] [%] | also measured |
| --- | --- | --- | --- | --- | --- |
| Cc1ccc(NC(=S)Nc2ccc(Cl)cc2)cc1NC(=S)Nc1ccc(Cl)cc1 [Example 1, N,N"-(4-methyl-1,3-phenylene)bis[N'-(4-chlorophenyl)thiourea]] | < 0 | 0 to 50 |  |  |  |
| COc1ccc(NC(=O)Nc2ccc([N+](=O)[O-])cc2)cc1NC(=O)Nc1ccc([N+](=O)[O-])cc1 [Example 2, N,N"-(4-methoxy-1,3-phenylene)bis[N'-(4-nitrophenyl)urea]] |  |  | < 0 | 50 to 90 |  |
| COc1ccc(NC(=O)Nc2ccc(Cl)cc2)cc1NC(=O)Nc1ccc(Cl)cc1 [Example 3, N,N"-(4-methoxy-1,3-phenylene)bis[N'-(4-chlorophenyl)urea]] | 0 to 50 | 0 to 50 |  |  |  |
| COc1ccc(NC(=O)Nc2ccc(C)cc2)cc1NC(=O)Nc1ccc(C)cc1 [Example 4, N,N"-(4-methoxy-1,3-phenylene)bis[N'-(p-tolyl)urea]] | 0 to 50 | 0 to 50 |  |  |  |
| CSC(=Nc1ccccc1)Nc1ccc(Oc2ccc(NC(=Nc3ccccc3)SC)cc2)cc1 [Example 5, dimethyl N,N"-(oxydi-4,1-phenylene)bis [N'-(phenyl) carbamimidothioate]] |  |  | < 0 | 0 to 50 |  |
| COc1ccc(NC(=S)Nc2ccc(Cl)cc2)cc1NC(=S)Nc1ccc(Cl)cc1 [Example 6, N,N"-(4-methoxy-1,3-phenylene)bis[N'-(4-chlorophenyl)thiourea]] | < 0 | 0 to 50 |  |  |  |
| COc1ccc(NC(=S)Nc2ccc([N+](=O)[O-])cc2)cc1NC(=S)Nc1ccc([N+](=O)[O-])cc1 [Example 7, N,N"-(4-methoxy-1,3-phenylene)bis[N'-(4-nitrophenyl)thiourea]] |  |  | < 0 | 0 to 50 |  |
| CSC(=Nc1ccc([N+](=O)[O-])cc1)Nc1ccc(Oc2ccc(NC(=Nc3ccc([N+](=O)[O-])cc3)SC)cc2)cc1 [Example 8, dimethyl N,N"-(oxydi-4,1-phenylene)bis[N'-(4-nitrophenyl)carbamimidothioate]] |  |  | < 0 | 0 to 50 |  |
| COc1cccc(NS(=O)(=O)c2ccc(Oc3ccc(S(=O)(=O)Nc4cccc(OC)c4)cc3)cc2)c1 [Example 9, bis[N-(3-methoxyphenyl)aminosulfonyl](oxydi-4,1-phenylene)] | 0 to 50 | > 90 |  |  |  |
| Cc1ccc(NS(=O)(=O)c2cccc(S(=O)(=O)Nc3ccc(C)cc3)c2)cc1 [Example 10, N,N"-(1,3-phenylene)bis[N-(p-tolyl)aminosulfonyl]] | 0 to 50 | 50 to 90 |  |  |  |
| Cc1cccc(NS(=O)(=O)c2ccc(Oc3ccc(S(=O)(=O)Nc4cccc(C)c4)cc3)cc2)c1 [Example 11, bis[N-(3-methylphenyl)aminosulfonyl](oxydi-4,1-phenylene)] | < 0 | 50 to 90 |  |  |  |
| CSC(=NCCc1ccccc1)Nc1ccc(Oc2ccc(NC(=NCCc3ccccc3)SC)cc2)cc1 [Example 12, dimethyl N,N"-(oxydi-4,1-phenylene)bis[N'-(2-phenylethyl)carbamimidothioate]] |  |  | 50 to 90 | > 90 | % Inhibition Against VZV Viral Replication ([2]; 2µm): +++ (>90% inhibition at the indicated concentration); % Inhibition Against HSV-2 Viral Replication ([3]; 1µm): + (<50% inhibition at the indicated concentration); % Inhibition Against HSV-2 Viral Replication ([3]; 10 µm): ++ (> 50% inhibition at the indicated concentration) |
| N=C(Nc1ccc(Cc2ccc(NC(=N)c3ccccc3)cc2)cc1)c1ccccc1 [Example 13, N,N"-(methylenedi-4,1-phenylene)bis [benzenecarboximidamide]] | 0 to 50 | > 90 |  |  | % Inhibition Against VZV Viral Replication ([2]; 2µm): + (<50% inhibition at the indicated concentration); % Inhibition Against HSV-2 Viral Replication ([3]; 1µm): + (<50% inhibition at the indicated concentration); % Inhibition Against HSV-2 Viral Replication ([3]; 10 µm): +++ (>90% inhibition at the indicated concentration) |
| O=[N+]([O-])c1ccc(NC(=S)Nc2ccc(Oc3ccc(NC(=S)Nc4ccc([N+](=O)[O-])cc4)cc3)cc2)cc1 [Example 14, N,N"-(oxydi-4,1-phenylene)bis[N'-(4-nitrophenyl)thiourea]] |  |  | < 0 | 0 to 50 |  |
| S=C(NCCc1ccccc1)Nc1ccc(Oc2ccc(NC(=S)NCCc3ccccc3)cc2)cc1 [Example 15, N,N''-(oxydi-4,1-phenylene)bis[N'-(2-phenylethyl)thiourea]] | 0 to 50 | 0 to 50 |  |  | % Inhibition Against VZV Viral Replication ([2]; 2µm): +++ (>90% inhibition at the indicated concentration); % Inhibition Against HSV-2 Viral Replication ([3]; 1µm): + (<50% inhibition at the indicated concentration); % Inhibition Against HSV-2 Viral Replication ([3]; 10 µm): + (<50% inhibition at the indicated concentration) |
| O=C(Nc1ccc(Oc2ccc(NC(=O)c3ccco3)cc2)cc1)c1ccco1 [Example 16, N,N"-(oxydi-4,1-phenylene)bis(2-furancarboxamide)] | 0 to 50 | 50 to 90 |  |  |  |
| O=S(=O)(c1ccc(OCc2ccc(Cl)cc2)cc1)c1ccc(OCc2ccc(Cl)cc2)cc1 [Example 17, bis(4-chlorobenzyloxy)(sulfonyldi-4,1-phenylene)] | 0 to 50 | 50 to 90 |  |  | % Inhibition Against VZV Viral Replication ([2]; 2µm): ++ (> 50% inhibition at the indicated concentration); % Inhibition Against HSV-2 Viral Replication ([3]; 1µm): ++ (> 50% inhibition at the indicated concentration); % Inhibition Against HSV-2 Viral Replication ([3]; 10 µm): ++ (> 50% inhibition at the indicated concentration) |
| O=S(=O)(c1ccc(OCc2ccc(Br)cc2)cc1)c1ccc(OCc2ccc(Br)cc2)cc1 [Example 18, bis(4-bromobenzyloxy)(sulfonyldi-4,1-phenylene)] | 0 to 50 | 50 to 90 |  |  | % Inhibition Against VZV Viral Replication ([2]; 10µm): +++ (>90% inhibition at the indicated concentration) |
| O=S(=O)(c1ccc(OCc2ccncc2)cc1)c1ccc(OCc2ccncc2)cc1 [Example 19, bis[(4-pyridyl)methoxy](sulfonyldi-4,1-phenylene)] | 0 to 50 | 0 to 50 |  |  |  |
| O=S(=O)(c1ccc(OCc2ccc(F)cc2)cc1)c1ccc(OCc2ccc(F)cc2)cc1 [Example 20, bis(4-fluorobenzyloxy)(sulfonyldi-4,1-phenylene)] | 0 to 50 | 50 to 90 |  |  |  |
| O=[N+]([O-])c1ccc(COc2ccc(S(=O)(=O)c3ccc(O)cc3)cc2)cc1 [Example 21, hydroxy(4-nitrobenzyloxy)(sulfonyldi-4,1-phenylene)] | < 0 | 50 to 90 |  |  |  |
| O=S(=O)(c1ccc(O)cc1)c1ccc(OCc2ccc(Cl)cc2)cc1 [Example 22, (4-chlorobenzyloxy)hydroxy(sulfonyldi-4,1-phenylene)] | < 0 | 50 to 90 |  |  |  |
| O=[N+]([O-])c1ccc(NC(=S)Nc2ccc(Cc3ccc(NC(=S)Nc4ccc([N+](=O)[O-])cc4)cc3)cc2)cc1 [Example 23, N, N"-(methylenedi-4,1-phenylene)bis[N'-(4-nitrophenyl)thiourea]] |  |  | < 0 | > 90 | % Inhibition Against VZV Viral Replication ([2]; 10µm): + (<50% inhibition at the indicated concentration) |
